Results as given in patent US20080319042A1, “Compositions and methods for treatment of liver disease” (priority 2007, published 2008).
Where “and” joins values, the source holds several entries; their conditions need not be identical. Equal entries are not always repeated.

Experiments:
HCV = details: cited from earlier work
Hep G2.2.15 cells = test: % Cell Viability in Anti-HBSAg Assay (Procedure A); assay type: cell-based, human; details: 50 μg/ml
Protocol: (§1) The HBV-producing human hepatoblastoma cell line, Hep G2.2.15 was maintained in DMEM supplemented with 10% fetal bovine serum (FBS), 2 mM glutamine, 100 units/ml penicillin, 100 μg/ml streptomycin and 380 μg/ml gentamicin sulfate (G418) at 37° C. under 5% CO2 in air. The Hep G2 parental cells were grown under identical conditions in MEM with Earle's salts without G418.
(§2) Hep G2.2.15 cells (190 μl) were seeded onto microtiter plates at a concentration of 20×10^4 cells/ml. The cells incubated overnight in medium without G418 after which the compound compositions (10 μl) were added. Five 2-fold serial dilutions of extracts or fractions were tested starting at 200 μg/ml final culture concentration. PBS and 3TC (lamivudine) were included as the negative and positive controls, respectively. The treated cells were incubated at 37° C. for 4 days, after which the hepatitis B surface antigen (HBsAg) production in culture supernatants was assayed. The HBsAg released into the culture medium in the presence or absence of test samples was assayed using the BIO-RAD Genetic Systems HBsAg EIA 3.0 kit (Bio-Rad, Redmond, Wash.). This enzyme immunoassay is based on the capture of HBsAg on monoclonal antibody-coated plates. Four- and twelve-fold dilutions of all culture supernatants collected were assayed in triplicate wells of the EIA plate. The percentage inhibition of HBsAg secretion in the presence of the plant samples was calculated against the negative control (PBS).

HCV/HIV pseudovirions = test: microbe, parasite or virus in culture; assay type: cell-based, hepatitis C virus; details: FIG. 1
HBsAg = test: Anti-HBSAg Assay (Procedure B), HBsAg; assay type: cell-based, hepatitis B virus
Protocol: The HBV-producing human hepatoblastoma cell line, Hep G2 2.2.15 is maintained in DMEM supplemented with 10% fetal bovine serum (FBS), 2 mM glutamine, 100 units/ml penicillin, 100 μg/ml streptomycin at 37° C. under 5% CO2 in air.
Samples were dissolved in DMSO at the concentration of 20 mg/mL, then further diluted with DMEM medium to the appropriate concentration.
Hep G2 2.2.15 cells (120 μl) were seeded onto 96-well plates at a concentration of 2×10^5 cells/mL. The cells incubated for 72 h in the medium without G418, after which the test samples (120 μl) were added. Five 3-fold serial dilutions of samples were tested. PBS and 3TC (lamivudine) were included as the negative and positive controls, respectively. The treated cells were incubated at 37° C. for 9 days; with the medium with sample being changed each 3 days, after which the culture supernatant was removed for analysis of both the hepatitis B surface antigen (HBsAg) production and hepatitis B DNA expression.
The HBsAg released into the culture medium in the presence or absence of test material was assayed using the kit manufactured by Shanghai Siic Kehua Biotech Co., Ltd (Shanghai, China). This enzyme immunoassay is based on the capture of HBsAg on monoclonal antibody-coated plates. Four- and twelve-fold dilutions of all culture supernatants collected were assayed in triplicate wells of the kit plate. The percentage inhibition of HBsAg secretion in the presence of the compound was calculated against the negative control (PBS). The IC50 values, the dose that inhibited viruses by 50%, were calculated using non-linear regression analysis (percent survival versus concentration).

[1] = test system: hepatitis B surface antigen (HBsAg) production; test: Anti-HBSAg Assay (Procedure A); assay type: cell-based, hepatitis B virus; details: 50 μg/ml
Protocol: as §1, §2

HBV DNA = test: Anti-HBV DNA Assay; assay type: cell-based, hepatitis B virus; details: for HBV DNA copies/ml: replicates, listed as HP-S1
HBeAg = test: Anti-HBSAg Assay (Procedure B), HBeAg; assay type: cell-based, hepatitis B virus

Q: For alpha-interferon, which “patients with a pronounced effect in reducing HCV to a very low level in the blood” value (HCV; chronic hepatitis C patients) is on record?
A: about 25%

Q: Which results are given for `COC(=O)C1=CO[C@@H](O[C@@H]2O[C@H](CO)[C@@H](O)[C@H](O)[C@H]2O)[C@H]2[C@@H]1[C@H](O)[C@H](O)[C@]2(C)O` [lamiridoside]?
A: % Cell Viability (Hep G2.2.15 cells): 100%; inhibition of HCV/HIV entry (HCV/HIV pseudovirions; 100 μg/mL): inactive; anti-hepatitis C virus activity (in words) (HCV/HIV pseudovirions): inactive; HBsAg Ave. (HBsAg; 12.5 μg/mL): 1.262; HBsAg Inhibition % (HBsAg; 12.5 μg/mL): 0%; HBsAg OD1 (HBsAg; 12.5 μg/mL): 1.305; HBsAg OD2 (HBsAg; 12.5 μg/mL): 1.149; HBsAg OD3 (HBsAg; 12.5 μg/mL): 1.331; HBsAg Ave. (HBsAg; 25 μg/mL): 1.474; HBsAg Inhibition % (HBsAg; 25 μg/mL): 0%; HBsAg OD1 (HBsAg; 25 μg/mL): 1.604; HBsAg OD2 (HBsAg; 25 μg/mL): 1.418; HBsAg OD3 (HBsAg; 25 μg/mL): 1.401; HBsAg Ave. (HBsAg; 50 μg/mL): 1.473; HBsAg Inhibition % (HBsAg; 50 μg/mL): 0%; HBsAg OD1 (HBsAg; 50 μg/mL): 1.659; HBsAg OD2 (HBsAg; 50 μg/mL): 1.504; HBsAg OD3 (HBsAg; 50 μg/mL): 1.255; HBsAg Ave. (HBsAg; 100 μg/mL): 1.507; HBsAg Inhibition % (HBsAg; 100 μg/mL): 0%; HBsAg OD1 (HBsAg; 100 μg/mL): 1.584; HBsAg OD2 (HBsAg; 100 μg/mL): 1.469; HBsAg OD3 (HBsAg; 100 μg/mL): 1.468; HBsAg Ave. (HBsAg; 200 μg/mL): 1.527; HBsAg Inhibition % (HBsAg; 200 μg/mL): 0%; HBsAg OD1 (HBsAg; 200 μg/mL): 1.546; HBsAg OD2 (HBsAg; 200 μg/mL): 1.504; HBsAg OD3 (HBsAg; 200 μg/mL): 1.531; anti-HBSAg activity (in words) (HBsAg; Tables 1-2): inactive; % Control HBSAg [1]: 96%; % Inhibition [1]: 4%; HBV DNA Average (HBV DNA; 12.5 μg/ml): 1.18 × 10^6 copies/ml; HBV DNA Inhibit (HBV DNA; 12.5 μg/ml): 0.00%; HBV DNA copies/ml (HBV DNA; 12.5 μg/ml): 1.32E+06 copies/ml and 9.64E+05 copies/ml and 1.26E+06 copies/ml; HBV DNA Average (HBV DNA; 25 μg/ml): 1.64 × 10^6 copies/ml; HBV DNA Inhibit (HBV DNA; 25 μg/ml): 0.00%; HBV DNA copies/ml (HBV DNA; 25 μg/ml): 1.95E+06 copies/ml and 1.30E+06 copies/ml and 1.67E+06 copies/ml; HBV DNA Average (HBV DNA; 50 μg/ml): 1.16 × 10^6 copies/ml; HBV DNA Inhibit (HBV DNA; 50 μg/ml): 0.85%; HBV DNA copies/ml (HBV DNA; 50 μg/ml): 1.26E+06 copies/ml and 1.14E+06 copies/ml and 1.07E+06 copies/ml; HBV DNA Average (HBV DNA; 100 μg/ml): 1.02 × 10^6 copies/ml; HBV DNA Inhibit (HBV DNA; 100 μg/ml): 12.80%; HBV DNA copies/ml (HBV DNA; 100 μg/ml): 7.78E+05 copies/ml and 7.93E+05 copies/ml and 1.50E+06 copies/ml; HBV DNA Average (HBV DNA; 200 μg/ml): 8.40 × 10^5 copies/ml; HBV DNA Inhibit (HBV DNA; 200 μg/ml): 28.20%; HBV DNA copies/ml (HBV DNA; 200 μg/ml): 1.17E+06 copies/ml and 5.77E+05 copies/ml and 7.74E+05 copies/ml; Anti-HBV DNA activity (in words) (HBV DNA; Table 3): inactive; HBeAg Ave (HBeAg; 12.5 μg/mL): 1.369; HBeAg Inhibition % (HBeAg; 12.5 μg/mL): 0%; HBeAg OD1 (HBeAg; 12.5 μg/mL): 1.509; HBeAg OD2 (HBeAg; 12.5 μg/mL): 1.254; HBeAg OD3 (HBeAg; 12.5 μg/mL): 1.345; HBeAg Ave (HBeAg; 25 μg/mL): 1.512; HBeAg Inhibition % (HBeAg; 25 μg/mL): 0%; HBeAg OD1 (HBeAg; 25 μg/mL): 1.558; HBeAg OD2 (HBeAg; 25 μg/mL): 1.488; HBeAg OD3 (HBeAg; 25 μg/mL): 1.49; HBeAg Ave (HBeAg; 50 μg/mL): 1.642; HBeAg Inhibition % (HBeAg; 50 μg/mL): 0%; HBeAg OD1 (HBeAg; 50 μg/mL): 1.774; HBeAg OD2 (HBeAg; 50 μg/mL): 1.669; HBeAg OD3 (HBeAg; 50 μg/mL): 1.482; HBeAg Ave (HBeAg; 100 μg/mL): 1.558; HBeAg Inhibition % (HBeAg; 100 μg/mL): 0%; HBeAg OD1 (HBeAg; 100 μg/mL): 1.607; HBeAg OD2 (HBeAg; 100 μg/mL): 1.502; HBeAg OD3 (HBeAg; 100 μg/mL): 1.565; HBeAg Ave (HBeAg; 200 μg/mL): 1.450; HBeAg Inhibition % (HBeAg; 200 μg/mL): 0%; HBeAg OD1 (HBeAg; 200 μg/mL): 1.095; HBeAg OD2 (HBeAg; 200 μg/mL): 1.634; HBeAg OD3 (HBeAg; 200 μg/mL): 1.621

Q: For `COc1cc2c(c(OC)c1OC)-c1ccc(OC)c(=O)cc1[C@@H](NC(C)=O)CC2` [Colchicine, colchicine], which “effect on disease progression (in words)” value (HCV; advanced liver disease) is on record?
A: does not slow the disease progression
